The values below come from patent US4350685A, “Antiallergic imidodisulfamides” (SmithKline Corporation, priority 1981, dated 1982).

The test system of the assay is SRS-A induced contraction of guinea pig ileum. Description: inhibition of SRS-A induced contraction of guinea pig ileum (SRS-A antagonist activity). Type of assay: cell-based. The note with it: Cavia porcellus, 0.25 h, partially purified SRS-A from guinea pig lung, 40 μg/ml, 15 minutes incubation, read-out: percent antagonism of SRS-A; for inhibition at 5 µM: 5×10^-6 M. As to the method:
The SRS-A antagonist activity of the compounds of this invention is measured by the ability of the active medicament to inhibit SRS-A induced contraction of guinea pig ileum. In this test system, sections of ileum are resected from guinea pigs and placed in 5 ml. tissue baths containing a modified Tyrode's solution. One end of the tissue is fixed to a glass tissue holder, the other is connected to a force-displacement transducer and the tissue is placed under a tension of 500 mg. Isometric tissue contractions are recorded on a six channel polygraph. Baths are constantly aerated with 95% O2 -5% CO2. After a 20 minute stabilization period a concentration of the appropriate agonist which provides a contraction height of 60-80% of the maximum obtainable to that agonist (as determined from full sequential concentration-response curves in separate experiments) is added to the tissue bath and the response recorded. The procedure is repeated until reproducible responses are obtained. For most agonists, two applications in rapid succession, followed 15 minutes later by a third, is sufficient to establish reproducibility. Experimental tissues are incubated with the selected concentration of the test compounds for 15 minutes. Experimental and control tissues are subjected to 5 bath changes during the incubation interval. Changes in bath fluid during the incubation period are helpful in insuring the reproducibility of tissue responses to the agonist. The same concentration of the agonist is reapplied in the presence of the test compound and the response registered and compared with controls. Percent inhibition produced by the test compound is calculated by substracting the mean percentage change in control tissue from the mean percentage change in tissues exposed to the test compound. Additional compounds are then evaluated as long as the tissue remains reproducibly responsive to the agonist. Six tissues obtained from 6 animals are used simultaneously--3 controls and 3 experimental. […]

Regarding `O=S(=O)(N[C@@H]1C[C@H]1c1ccccc1)NS(=O)(=O)N[C@@H]1C[C@H]1c1ccccc1` (relative stereo) [Compound 1, 1,5-Di[TRANS-2-PHENYLCYCLOPROPYL]IMIDODISULFAMIDE], the inhibition at 5 µM is 17%.

Take `O=S(=O)(N[C@@H]1CCCC[C@@H]1c1ccccc1)NS(=O)(=O)N[C@@H]1CCCC[C@@H]1c1ccccc1` (relative stereo) [Compound 3, 1,5-di[cis-2-phenylcyclohexyl]imidodisulfamide]: the inhibition at 50 µM (5×10^-5 M) stood at 86%.

For the compound `O=S(=O)(N[C@@H]1C[C@H]1c1ccc(Cl)c(Cl)c1)NS(=O)(=O)N[C@@H]1C[C@H]1c1ccc(Cl)c(Cl)c1` (relative stereo) [Compound 2, 1,5-di[trans-2-(3,4-dichlorophenyl)cyclopropyl]imidodisulfamide], the inhibition at 5 µM was determined as 60%.
